According to patent publication US20030104473A1, “Common ligand mimics: benzimidazoles” (priority 2001, published 2003):

Experiments:
[1] = target: T1, HMG CoA reductase (HMGCoAR) (UniProt P04035); assay: HMGCoAR kinetic assay, spectrophotometric oxidation of NADPH at 340 nm; assay type: biochemical; conditions: Example 13 oxidoreductase panel (FIG. 7)
T1 sequence (P04035 1-888): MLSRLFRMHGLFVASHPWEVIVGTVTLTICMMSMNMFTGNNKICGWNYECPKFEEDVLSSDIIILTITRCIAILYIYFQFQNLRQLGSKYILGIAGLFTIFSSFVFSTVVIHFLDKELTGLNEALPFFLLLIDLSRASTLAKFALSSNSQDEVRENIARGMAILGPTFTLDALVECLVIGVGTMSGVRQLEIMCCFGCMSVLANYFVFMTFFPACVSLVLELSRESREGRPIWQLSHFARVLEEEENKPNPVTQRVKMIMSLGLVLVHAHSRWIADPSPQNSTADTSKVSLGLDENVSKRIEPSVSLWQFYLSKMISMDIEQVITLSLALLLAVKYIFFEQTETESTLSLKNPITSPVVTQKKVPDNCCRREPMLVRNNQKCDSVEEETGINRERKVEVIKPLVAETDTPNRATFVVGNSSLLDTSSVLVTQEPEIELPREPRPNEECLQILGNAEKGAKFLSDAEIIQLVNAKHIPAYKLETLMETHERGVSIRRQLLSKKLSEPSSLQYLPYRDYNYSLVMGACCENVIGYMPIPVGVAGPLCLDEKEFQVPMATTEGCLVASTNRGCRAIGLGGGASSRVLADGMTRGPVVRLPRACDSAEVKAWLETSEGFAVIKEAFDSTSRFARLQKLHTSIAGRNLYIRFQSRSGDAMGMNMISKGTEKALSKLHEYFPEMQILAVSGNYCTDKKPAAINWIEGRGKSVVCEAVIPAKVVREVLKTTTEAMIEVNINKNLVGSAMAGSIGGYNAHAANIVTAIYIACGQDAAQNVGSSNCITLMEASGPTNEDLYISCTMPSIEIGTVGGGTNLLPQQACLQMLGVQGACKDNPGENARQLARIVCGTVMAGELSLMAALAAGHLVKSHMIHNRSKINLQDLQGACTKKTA
Experimental: For HMGCoAR analysis, the compounds were screened using a kinetic protocol that spectrophotometrically evaluates oxidation of NADPH.
Stock solutions of each of the reagents were prepared in the following concentrations. Dilutions of the stock solutions were prepared prior to running the assay in the concentrations indicated below. The enzyme was diluted in 1 M NaCl. To prepare the dilution buffer, 10 μl of HMGCoAR (1 mg/ml) was mixed with 133 μl of 3 M NaCl solution and 257 μl of 25 mM KH2PO4 buffer (pH 7.5; containing 50 mM NaCl, […] EDTA (ethylenediaminetetraacetic acid), and 5 mM DTT (dithiothreitol).
The HMGCoAR reaction was monitored at 340 nm prior to and after addition of the inhibitor to detect background reaction with the inhibitor. Solutions of 100 μM of the inhibitors in DMSO were prepared to provide a final DMSO concentration of 2% of the total assay volume. These solutions were incubated for 6 minutes at 25° C. in a 994 μl of a solution containing 25 mM KH2PO4, pH 7.5, 160 μM HMGCoA, 13 μM NADPH, 50 mM NaCl, 1 mM EDTA, and 5 mM DTT. The reaction was then initiated with 5 μl of HMGCoAR enzyme (1:40 dilution of 0.65 mg/ml). After the enzyme was added, the solution was mixed for 20 seconds, and the reaction was run for 10 minutes. After a 50 second lag, the samples were read in a Cary spectrophotometer at 340 nm. Reading of the samples was continued until 300 seconds. […]

[2] = target: T2, lactate dehydrogenase (LDH) (Oryctolagus cuniculus, UniProt P13491); assay: LDH kinetic assay, spectrophotometric oxidation of NADH at 340 nm; assay type: biochemical, Rabbit Muscle; conditions: Example 13 oxidoreductase panel (FIG. 7)
T2 construct: 10 μl of LDH from Rabbit Muscle; from tissue; host or cells: rabbit muscle
Experimental: For LDH analysis, the compounds were screened using a kinetic protocol that spectrophotometrically evaluates oxidation of NADH.
Stock solutions of each of the reagents were prepared in the following concentrations. Dilutions of the stock solutions were prepared prior to running the assay in the concentrations indicated below.
The LDH reaction was monitored at 340 nm prior to and after addition of the inhibitor to detect background reaction with the inhibitor. Solutions of 100 μl of the inhibitors in DMSO were prepared to provide a final DMSO concentration of 5% of the total assay volume. These solutions were incubated for 6 minutes at 25° C. in a 990 μl of a solution containing 0.1 M HEPES, pH 7.4, 10 μM NADH, and 2.5 mM of pyruvate. The reaction was then initiated with 10 μl of LDH from Rabbit Muscle (0.5 μg/ml; 1:2000 dilution of 1.0 mg/ml). After the enzyme was added, the solution was mixed for 20 seconds, and the reaction was run for 10 minutes. After a 50 second lag, the samples were read in a Cary spectrophotometer at 340 nm. Reading of the samples was continued until 300 seconds. Cuvette #1 contained the control reaction (no inhibitor), and cuvette #2 contained the positive control reaction in which Cibacron Blue at 10.3 μM was substituted for inhibitor to yield 50 to 70% inhibition. The substrate was kept at a level at least 10 times the Km.

Structure (SMILES)	IC50 [1] [µM]	IC50 [2] [µM]
O=C(O)c1ccc(-c2ccc(-c3nc4ccccc4[nH]3)o2)cc1 [compound 6b, 4-[5-(1H-benzoimidazol-2-yl)-furan-2-yl] benzoic acid]	22	–
O=C(O)c1ccc(-c2ccc(-c3nc4cc([N+](=O)[O-])ccc4[nH]3)o2)cc1 [compound 6d, 4-[5-(5-nitro-1H-benzoimidazol-2-yl)-furan-2-yl]-benzoic acid]	–	4.56
